One compound from ChEMBL document CHEMBL4354805, “Discovery of MK-8719, a Potent O-GlcNAcase Inhibitor as a Potential Treatment for Tauopathies” (J Med Chem, 2019) can be followed below.

Each structure is given as a SMILES string.

Series [1] can be described thus: Volume of distribution at steady state in Beagle dog at 1 mg/kg, iv or 3 mg/kg, po. Particulars: in vivo, read-out: Vdss; call rule not given here. In kind it is ADME, organism-based, Canis lupus familiaris.
A short description of series [2]: Ratio of drug uptake in rat brain to plasma at 3 mg/kg, po measured after 8 hrs. In kind it is ADME, organism-based. Particulars: read-out: BPR.
For another series, the target named is Cytochrome P450 3A4 (Homo sapiens, UniProt P08684). Kind of series: Induction of CYP3A4 in human hepatocytes upto 20 uM. In kind it is ADME, cell-based.
Series [3] is described as follows: Ratio of drug level in monkey blood to plasma. Particulars: rhesus monkey, whole blood. In kind it is ADME, cell-free, Macaca mulatta.
Series [4] in a line: Toxicity in rat assessed as change in histomorphology at 1000 mg/kg, po administered for 7 days and measured on day 8. Particulars: in vivo, 168 h. In kind it is organism-based.
Series [5] can be described thus: AUCN in Wistar Han rat at 10 mg/kg, po. In kind it is ADME, organism-based. Particulars: in vivo.
A short description of series [6]: Protein binding in dog plasma. In kind it is ADME, cell-free, Canis lupus familiaris. Particulars: read-out: PPB.
A further series concerns the target Cav1.2 (Homo sapiens, UniProt Q13936). Kind of series: Inhibition of Cav1.2 (unknown origin) at 30 uM.
Series [7] in a line: Tmax in rat brain at 10 mg/kg, po measured upto 24 hrs. In kind it is ADME, organism-based.
Series [8] is described as follows: Ratio of drug level in human blood to plasma. Particulars: whole blood. In kind it is ADME, cell-free.
Series [9] is described as follows: Stability in rat hepatocytes assessed as parent compound remaining at 10 uM incubated for 120 mins. Particulars: read-out: Stability. In kind it is ADME, cell-based, Hepatocyte.
A short description of series [10]: Half life in Wistar Han rat at 2 mg/kg, iv. In kind it is ADME, organism-based. Particulars: in vivo.
Another series relates to Canis familiaris. Kind of series: Hemodynamic activity in telemetered dog assessed as change in EKG parameter at 300 mg/kg, po. In kind it is ADME, organism-based, Canis lupus familiaris. Particulars: in vivo.
A further series deals with T1, Cytochrome P450 1A2 (Homo sapiens, UniProt P05177).
T1 sequence (P05177 whole entry): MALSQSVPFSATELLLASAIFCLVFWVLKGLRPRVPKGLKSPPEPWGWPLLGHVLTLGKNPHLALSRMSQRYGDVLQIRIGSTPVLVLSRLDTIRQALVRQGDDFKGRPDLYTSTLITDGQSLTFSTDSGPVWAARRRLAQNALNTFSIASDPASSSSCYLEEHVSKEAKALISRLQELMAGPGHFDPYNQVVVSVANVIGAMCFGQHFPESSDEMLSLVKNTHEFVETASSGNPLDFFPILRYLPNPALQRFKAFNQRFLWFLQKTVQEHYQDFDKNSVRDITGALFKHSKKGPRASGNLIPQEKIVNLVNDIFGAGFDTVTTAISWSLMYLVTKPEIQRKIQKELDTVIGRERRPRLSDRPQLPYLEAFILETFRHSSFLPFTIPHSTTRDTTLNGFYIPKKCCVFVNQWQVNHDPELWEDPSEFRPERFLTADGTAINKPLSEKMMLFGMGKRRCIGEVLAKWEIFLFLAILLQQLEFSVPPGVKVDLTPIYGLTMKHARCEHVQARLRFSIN
Kind of series: Induction of CYP1A2 in human hepatocytes upto 20 uM. In kind it is ADME, cell-based.

A short description of series [11]: Fraction unbound in Beagle dog plasma at 1 uM by equilibrium dialysis. In kind it is ADME, cell-free, Canis lupus familiaris. In general terms: In equilibrium dialysis only unbound substance equilibrates across the membrane.

Cytochrome P450 3A4, sequence (P08684 whole entry): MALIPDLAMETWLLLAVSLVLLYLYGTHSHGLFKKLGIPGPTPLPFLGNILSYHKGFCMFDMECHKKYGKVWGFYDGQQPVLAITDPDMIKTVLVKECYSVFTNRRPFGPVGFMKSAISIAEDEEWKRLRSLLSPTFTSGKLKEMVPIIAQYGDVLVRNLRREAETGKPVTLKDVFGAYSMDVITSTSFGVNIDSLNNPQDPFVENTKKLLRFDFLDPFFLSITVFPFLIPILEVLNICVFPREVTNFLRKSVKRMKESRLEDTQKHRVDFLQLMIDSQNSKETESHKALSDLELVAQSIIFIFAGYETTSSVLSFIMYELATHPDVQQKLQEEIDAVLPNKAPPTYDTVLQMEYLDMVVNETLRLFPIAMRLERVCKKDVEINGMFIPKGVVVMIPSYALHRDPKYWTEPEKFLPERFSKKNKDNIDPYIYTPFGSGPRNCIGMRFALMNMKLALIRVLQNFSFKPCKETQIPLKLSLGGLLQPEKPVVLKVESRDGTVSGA
Cav1.2, sequence (Q13936 whole entry): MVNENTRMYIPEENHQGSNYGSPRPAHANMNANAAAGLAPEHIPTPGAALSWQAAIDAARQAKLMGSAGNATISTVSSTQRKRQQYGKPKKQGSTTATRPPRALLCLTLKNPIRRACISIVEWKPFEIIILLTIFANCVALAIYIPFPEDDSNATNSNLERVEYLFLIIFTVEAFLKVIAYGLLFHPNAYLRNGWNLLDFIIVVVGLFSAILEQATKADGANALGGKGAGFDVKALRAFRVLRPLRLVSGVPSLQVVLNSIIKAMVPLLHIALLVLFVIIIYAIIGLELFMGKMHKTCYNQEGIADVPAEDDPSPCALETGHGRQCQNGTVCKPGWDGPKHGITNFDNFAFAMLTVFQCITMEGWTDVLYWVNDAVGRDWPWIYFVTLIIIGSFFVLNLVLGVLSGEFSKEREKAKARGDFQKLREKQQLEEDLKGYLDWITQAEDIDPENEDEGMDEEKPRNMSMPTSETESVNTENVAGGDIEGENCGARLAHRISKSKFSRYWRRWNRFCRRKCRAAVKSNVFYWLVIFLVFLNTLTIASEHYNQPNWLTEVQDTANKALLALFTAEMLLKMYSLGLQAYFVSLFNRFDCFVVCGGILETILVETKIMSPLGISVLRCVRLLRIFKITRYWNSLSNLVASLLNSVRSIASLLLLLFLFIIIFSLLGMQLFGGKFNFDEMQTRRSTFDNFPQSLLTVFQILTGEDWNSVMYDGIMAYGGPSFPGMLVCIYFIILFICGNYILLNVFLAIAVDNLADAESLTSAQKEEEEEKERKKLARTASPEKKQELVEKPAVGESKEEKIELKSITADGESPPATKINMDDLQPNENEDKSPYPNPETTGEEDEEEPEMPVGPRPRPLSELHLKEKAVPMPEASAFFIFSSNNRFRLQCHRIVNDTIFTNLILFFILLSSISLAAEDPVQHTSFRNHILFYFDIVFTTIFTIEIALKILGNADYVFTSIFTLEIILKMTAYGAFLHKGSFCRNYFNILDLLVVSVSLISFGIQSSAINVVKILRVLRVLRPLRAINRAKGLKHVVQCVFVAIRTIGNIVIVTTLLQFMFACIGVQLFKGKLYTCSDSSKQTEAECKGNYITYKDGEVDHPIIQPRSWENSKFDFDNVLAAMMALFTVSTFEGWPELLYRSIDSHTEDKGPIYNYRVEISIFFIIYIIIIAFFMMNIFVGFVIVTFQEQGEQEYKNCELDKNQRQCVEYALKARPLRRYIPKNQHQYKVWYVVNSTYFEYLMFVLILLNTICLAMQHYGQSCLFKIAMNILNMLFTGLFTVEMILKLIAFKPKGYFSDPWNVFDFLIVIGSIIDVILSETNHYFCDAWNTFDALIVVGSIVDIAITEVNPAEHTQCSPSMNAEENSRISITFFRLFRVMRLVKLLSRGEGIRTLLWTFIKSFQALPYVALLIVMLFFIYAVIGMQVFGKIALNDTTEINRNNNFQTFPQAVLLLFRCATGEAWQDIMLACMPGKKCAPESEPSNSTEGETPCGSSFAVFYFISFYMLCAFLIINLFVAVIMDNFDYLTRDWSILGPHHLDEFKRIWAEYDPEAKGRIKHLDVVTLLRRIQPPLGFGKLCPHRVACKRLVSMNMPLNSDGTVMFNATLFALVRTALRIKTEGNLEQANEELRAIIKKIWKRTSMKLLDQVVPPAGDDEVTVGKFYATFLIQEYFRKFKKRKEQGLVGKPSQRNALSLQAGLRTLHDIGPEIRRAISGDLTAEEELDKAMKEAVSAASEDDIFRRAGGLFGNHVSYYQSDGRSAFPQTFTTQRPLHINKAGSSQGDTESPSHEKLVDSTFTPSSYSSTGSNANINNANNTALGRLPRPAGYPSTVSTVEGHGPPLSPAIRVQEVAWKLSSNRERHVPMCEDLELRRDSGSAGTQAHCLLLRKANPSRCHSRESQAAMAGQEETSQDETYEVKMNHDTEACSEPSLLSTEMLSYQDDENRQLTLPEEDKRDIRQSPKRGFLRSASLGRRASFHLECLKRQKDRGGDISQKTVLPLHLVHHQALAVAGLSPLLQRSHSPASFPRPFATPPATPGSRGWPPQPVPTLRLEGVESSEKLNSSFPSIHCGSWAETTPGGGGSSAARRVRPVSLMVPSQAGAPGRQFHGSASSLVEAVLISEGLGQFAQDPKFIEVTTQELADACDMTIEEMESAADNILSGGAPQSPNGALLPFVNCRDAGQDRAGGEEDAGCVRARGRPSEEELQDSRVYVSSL

For `CCNC1=N[C@@H]2[C@@H](O)[C@H](O)[C@@H](C(F)F)O[C@@H]2S1`, in series [1], the Vd was determined as 2.4 L/kg. Moreover, the Kp at 8 h in series [2] turned out to be 1.84. Besides, the Activity entry at Cytochrome P450 3A4 is reported as “Not Active”; in series [4], “Non-Toxic”; with Canis familiaris, “Non-Toxic”; at Cytochrome P450 1A2, “Not Active”. The blood plasma ratio in series [3] and in series [8] was 0.9 to 1.1 each time. Moreover, the AUC/dose in [5] was 1.4 µM·kg·h/mg. In addition, the fraction unbound in [6] is over 0.95. Moreover, on Cav1.2, the inhibition at 30 µM was under 50%. Besides, the Tmax in [7] was found to be 8 h. Further, the remaining at 2 h, 10 µM in series [9] turned out to be 96%. The half-life in series [10] was 114 min. Also, the fraction unbound at 1 µM in series [11] was over 0.99.

The term inhibition denotes the percentage by which the read-out fell short of the control. In general, Tmax refers to the time at which the peak concentration occurs. As a reminder, the half-life is how long it takes for the measured level to halve.
